The structures appear in SMILES notation.

One assay concerns the target T1, Bcl-2-related protein A1 (Homo sapiens, UniProt Q16548).
T1 sequence (Q16548 whole entry): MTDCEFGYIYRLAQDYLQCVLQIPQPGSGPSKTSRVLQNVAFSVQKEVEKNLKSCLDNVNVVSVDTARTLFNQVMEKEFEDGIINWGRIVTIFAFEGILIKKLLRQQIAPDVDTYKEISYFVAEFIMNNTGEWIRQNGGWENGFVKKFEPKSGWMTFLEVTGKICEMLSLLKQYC
Description: inhibitors of Bim binding to Bfl-1, confirmation, biochemical, multiplexed, bead-based flow cytometry, HTS hits (AID 2080).
Settings: not given
`O=C1C(Cl)=C(N2CCN(c3ccccc3[N+](=O)[O-])CC2)C(=O)c2ccccc21` gave an EC50 of 2.68 µM.
The same measure, in the same setting: with `O=c1[nH]c(O)c(Cc2ccc(-c3cc(Cl)ccc3[N+](=O)[O-])o2)c(=O)[nH]1` the figure was 0.81 µM; with `O=C(NCc1ccccc1)c1ccc2nc(-c3ccco3)c(-c3ccco3)nc2c1` [2,3-bis(furan-2-yl)-N-(phenylmethyl)quinoxaline-6-carboxamide], 8.1 µM.
`Cc1nnc(Sc2cc(NCCO)c([N+](=O)[O-])c3nonc23)s1` [2-[[7-[(5-methyl-1,3,4-thiadiazol-2-yl)thio]-4-nitro-2,1,3-benzoxadiazol-5-yl]amino]ethanol] showed an EC50 of 0.82 µM.
On the same count and under the same terms, with `Cc1ccc(-c2cc(-c3ccc(C)o3)nc(N)c2C#N)cc1` [2-amino-6-(5-methylfuran-2-yl)-4-(4-methylphenyl)pyridine-3-carbonitrile] the figure was 5.44 µM; with `Cc1cc(-c2cc(-c3ccc(Cl)cc3)nc(N)c2C#N)co1` [2-azanyl-6-(4-chlorophenyl)-4-(5-methylfuran-3-yl)pyridine-3-carbonitrile], 4.92 µM; with `COc1ccc(N2C(=O)C(Cl)=C(Oc3cccc(OC)c3)C2=O)cc1` [3-chloro-4-(3-methoxyphenoxy)-1-(4-methoxyphenyl)-1H-pyrrole-2,5-dione], 1.06 µM.
Regarding `CNC(CC(=O)c1ccc([N+](=O)[O-])cc1)C(Cl)(Cl)Cl` (configuration not stated) [4,4,4-Trichloro-3-methylamino-1-(4-nitro-phenyl)-butan-1-one], the concentration for a half-maximal effect (EC50) is 3.97 µM.
Same read-out and setting: with `C=CS(=O)(=O)c1sc(Cl)c(N2CCOCC2)c1[N+](=O)[O-]` [4-(2-chloranyl-5-ethenylsulfonyl-4-nitro-thiophen-3-yl)morpholine] the figure was 3.57 µM; with `COc1cc(/N=C2\SSNC2Cl)c(OC)cc1Cl` (configuration not stated) [4-chloro-N-(4-chloro-2,5-dimethoxyphenyl)-5-dithiazolidinimine], 5.78 µM; with `O=[N+]([O-])c1c(NCCCO)cc(Sc2nc3ccccc3s2)c2nonc12` [MLS000520994], 0.26 µM.
On the same count and under the same terms, with `CN(CCO)c1cc(Sc2nc3ccccc3s2)c2nonc2c1[N+](=O)[O-]` [MLS000520995] the figure was 0.72 µM; with `CC(=O)OCCCNc1cc(Sc2nc3ccccc3s2)c2nonc2c1[N+](=O)[O-]` [MLS000521052], 0.17 µM.
On the same count and under the same terms, with `CC(=O)Nc1ccc(-n2cc(-c3ccccc3)[nH]c2=S)cc1` [MLS001001946] the figure was 2.05 µM; with `COc1ccccc1-n1c(-c2ccccc2)c[nH]c1=S` [MLS001007615], 1.23 µM; with `COc1ccccc1NC1=C(NC(C)=O)C(=O)c2ccccc2C1=O` [N-[3-(2-methoxyanilino)-1,4-dioxonaphthalen-2-yl]acetamide], 1.84 µM.
Consider `O=C(Nc1nnc(COc2ccc(Cl)cc2)s1)c1ccco1` [N-[5-[(4-chloranylphenoxy)methyl]-1,3,4-thiadiazol-2-yl]furan-2-carboxamide], for which the EC50 stood at 3.09 µM.
Consider `Cc1cc2nn(-c3cccc4ccccc34)nc2cc1N` [SMR000076237], for which a half-maximal response (EC50) required 1.51 µM.
Still for that read-out and setting: with `S=c1[nH]cc(-c2ccccc2)n1-c1ccccc1` [SMR000196363] the figure was 3 µM.
The same measure, in the same setting: the value for `CCN1C(=O)/C(=C\C=C2/C=CC=CN2CC)SC1=S` [SMR000225150] was 2.32 µM; that for `Oc1ccc(NCc2ccccc2OCc2ccccc2)cc1` [SMR000231540] was 8.06 µM.

Still in this assay, the particulars now being: inactive by the depositor's call.
Turning to `Cc1ccc(-c2cc(-c3ccc(F)cc3)c(C#N)c(N)n2)o1`, the EC50 stood at 20 µM.
As for `CCN(CC)c1ccc(NC(=O)c2ccccc2Br)cc1S(=O)(=O)Nc1ccccc1OC`, the response was half-maximal at 10.7 µM (EC50).
Still for that read-out and setting: the value for `O=C1C(=Cc2ccco2)NC(=S)N1c1ccccc1` [(5E)-5-(furan-2-ylmethylidene)-3-phenyl-2-sulfanylideneimidazolidin-4-one] was 17.4 µM; that for `Clc1nc(NCc2cccnc2)nc(N2CCOCC2)n1` [MLS000121154] was 20 µM.
Still for that read-out and setting: the value for `COc1ccc(CCNC(=O)c2ccc3nc(-c4ccco4)c(-c4ccco4)nc3c2)cc1OC` [N-[2-(3,4-dimethoxyphenyl)ethyl]-2,3-di-2-furylquinoxaline-6-carboxamide] was 15.4 µM; that for `CCN(CC)c1ccc(NC(=O)c2ccccc2F)cc1S(=O)(=O)Nc1ccccc1OC` [SMR000241522] was 25.8 µM.

For the origin of these results see BindingDB's records for doi:10.7270/Q2HQ3XCR (Nmmlsc, 2009).
